Reference: a compilation of properties of binary mixtures (doi:10.1021/acs.jced.0c00298)

Test: xn = mol fraction of the nth substance listed
Details: 100 kPa

CO + CC[n+]1ccn(CCOC)c1.O=S(=O)([N-]S(=O)(=O)C(F)(F)F)C(F)(F)F
x2 = 0
Details | viscosity [mPa·s]
288.15 K | 0.623
293.15 K | 0.58
298.15 K | 0.541
303.15 K | 0.505

CC[n+]1ccn(CCOC)c1.O=S(=O)([N-]S(=O)(=O)C(F)(F)F)C(F)(F)F + CO
viscosity [mPa·s]
Details | x1 = 0.1 | x1 = 0.1997 | x1 = 0.2999 | x1 = 0.3966 | x1 = 0.5 | x1 = 0.5984 | x1 = 0.6953 | x1 = 0.7934 | x1 = 0.9016 | x1 = 1
288.15 K | 1.982 | 4.2 | – | 11.27 | – | – | 30.4 | – | 47.6 | 54.62
293.15 K | 1.791 | 3.71 | 6.22 | 9.6 | 13.37 | 18.95 | 25.01 | 30.37 | 38.28 | –
298.15 K | – | 3.297 | – | 8.27 | 11.39 | 16.24 | 20.9 | 25.15 | 31.34 | 35.49
303.15 K | 1.486 | 2.951 | – | 7.21 | – | 13.93 | 17.85 | 21.12 | 26.04 | –
308.15 K | 1.362 | – | – | – | 8.55 | – | 15.37 | – | 21.94 | 24.58
313.15 K | 1.252 | 2.408 | 3.827 | 5.611 | 7.51 | – | – | – | 18.75 | 20.86
318.15 K | 1.155 | 2.193 | – | 5.009 | 6.66 | 9.11 | 11.53 | 13.65 | 16.34 | 18.03
